Reference: the kinase profiling compilation of Christmann-Franck et al. (2016)

What was measured:
Assay in all cases: KINOMEscan competition binding
Conditions in all cases: compound 1.0 µM
CaMK1 (human) = CaMK1 (human) (UniProt Q14012)
NEK5 (human) = NEK5 (human) (UniProt Q6P3R8)
ROCK2 (human) = ROCK2 (human) (UniProt O75116)
MST1R (human) = MST1R (human) (UniProt Q04912)
TIE1 (human) = TIE1 (human) (UniProt P35590)
SLK (human) = SLK (human) (UniProt Q9H2G2)
[1] = test system: PIK3CA (human), P42336 [H1047Y]
MAP2K3 (human) = MAP2K3 (human) (UniProt P46734)
PRKAA1 (human) = PRKAA1 (human) (UniProt Q13131)
PIK3CG (human) = PIK3CG (human) (UniProt P48736)
MLTK (human) = MLTK (human) (UniProt Q9NYL2)
ACVR1 (human) = ACVR1 (human) (UniProt Q04771)
FER (human) = FER (human) (UniProt P16591)
MAPK1 (human) = MAPK1 (human) (UniProt P28482)
[2] = test system: EGFR (human), P00533 [T790M/L858R]
CAMK4 (human) = CAMK4 (human) (UniProt Q16566)
STK16 (human) = STK16 (human) (UniProt O75716)
[3] = test system: FGFR3 (human), P22607 [G697C]
MAP4K2 (human) = MAP4K2 (human) (UniProt Q12851)
EPHB4 (human) = EPHB4 (human) (UniProt P54760)
DYRK2 (human) = DYRK2 (human) (UniProt Q92630)
STK38L (human) = STK38L (human) (UniProt Q9Y2H1)
ERBB4 (human) = ERBB4 (human) (UniProt Q15303)
EIF2AK1 (human) = EIF2AK1 (human) (UniProt Q9BQI3)
[4] = test system: ABL1 (human), P00519 [Y253F]
CDKL3 (human) = CDKL3 (human) (UniProt Q8IVW4)
PIK3C2B (human) = PIK3C2B (human) (UniProt O00750)
[5] = test system: EGFR (human), P00533 [746-750 del]
TXK (human) = TXK (human) (UniProt P42681)
CDK17 (human) = CDK17 (human) (UniProt Q00537)
STK17B (human) = STK17B (human) (UniProt O94768)
MARK3 (human) = MARK3 (human) (UniProt P27448)
CDK4 CCND1 (human) = CDK4 CCND1 (human) (UniProt P11802+P24385)
NLK (human) = NLK (human) (UniProt Q9UBE8)
[6] = test system: FLT3 (human), P36888 [D835Y]
[7] = test system: EGFR (human), P00533 [L861Q]
IRAK1 (human) = IRAK1 (human) (UniProt P51617)
ERBB3 (human) = ERBB3 (human) (UniProt P21860)
BRSK2 (human) = BRSK2 (human) (UniProt Q8IWQ3)
FGFR3 (human) = FGFR3 (human) (UniProt P22607)
TEC (human) = TEC (human) (UniProt P42680)
MAK (human) = MAK (human) (UniProt P20794)
RPS6KA3 KD1 (human) = RPS6KA3 KD1 (human) (UniProt P51812)

ERBB3 (human), sequence (P21860 whole entry, looked up): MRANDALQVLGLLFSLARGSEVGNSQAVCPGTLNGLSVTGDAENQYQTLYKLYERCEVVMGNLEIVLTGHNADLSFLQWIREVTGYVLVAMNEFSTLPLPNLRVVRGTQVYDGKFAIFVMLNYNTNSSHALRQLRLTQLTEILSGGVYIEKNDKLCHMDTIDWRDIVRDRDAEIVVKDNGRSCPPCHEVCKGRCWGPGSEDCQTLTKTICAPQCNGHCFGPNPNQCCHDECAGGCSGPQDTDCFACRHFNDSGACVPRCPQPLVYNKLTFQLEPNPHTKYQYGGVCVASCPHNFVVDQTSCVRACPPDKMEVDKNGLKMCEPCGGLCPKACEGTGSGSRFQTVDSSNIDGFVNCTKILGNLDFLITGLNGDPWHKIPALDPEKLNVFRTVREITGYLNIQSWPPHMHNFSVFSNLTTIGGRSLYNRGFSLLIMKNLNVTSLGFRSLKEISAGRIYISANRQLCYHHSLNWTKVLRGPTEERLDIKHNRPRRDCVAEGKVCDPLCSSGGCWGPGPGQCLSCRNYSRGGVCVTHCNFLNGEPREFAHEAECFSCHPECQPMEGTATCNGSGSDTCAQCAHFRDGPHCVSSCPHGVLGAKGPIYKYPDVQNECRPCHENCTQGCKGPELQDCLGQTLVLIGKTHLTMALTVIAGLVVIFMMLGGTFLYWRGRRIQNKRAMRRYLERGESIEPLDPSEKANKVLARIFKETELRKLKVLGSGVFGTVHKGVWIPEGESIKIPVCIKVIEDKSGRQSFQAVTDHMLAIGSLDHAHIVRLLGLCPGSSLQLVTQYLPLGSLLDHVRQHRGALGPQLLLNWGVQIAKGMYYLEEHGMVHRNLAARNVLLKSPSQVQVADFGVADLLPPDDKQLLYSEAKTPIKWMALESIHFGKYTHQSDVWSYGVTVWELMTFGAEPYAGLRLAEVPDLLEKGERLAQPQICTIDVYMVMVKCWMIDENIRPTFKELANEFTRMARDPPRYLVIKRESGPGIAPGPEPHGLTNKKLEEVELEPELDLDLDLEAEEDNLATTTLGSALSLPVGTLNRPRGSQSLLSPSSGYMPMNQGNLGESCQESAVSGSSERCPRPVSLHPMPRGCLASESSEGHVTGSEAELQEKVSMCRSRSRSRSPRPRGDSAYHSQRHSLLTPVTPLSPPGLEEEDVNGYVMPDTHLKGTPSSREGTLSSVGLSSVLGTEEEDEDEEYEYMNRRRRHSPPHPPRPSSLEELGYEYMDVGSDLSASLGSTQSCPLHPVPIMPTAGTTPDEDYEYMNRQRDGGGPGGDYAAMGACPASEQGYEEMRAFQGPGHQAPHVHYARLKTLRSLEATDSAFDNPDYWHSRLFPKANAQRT
MARK3 (human), sequence (P27448 whole entry, looked up): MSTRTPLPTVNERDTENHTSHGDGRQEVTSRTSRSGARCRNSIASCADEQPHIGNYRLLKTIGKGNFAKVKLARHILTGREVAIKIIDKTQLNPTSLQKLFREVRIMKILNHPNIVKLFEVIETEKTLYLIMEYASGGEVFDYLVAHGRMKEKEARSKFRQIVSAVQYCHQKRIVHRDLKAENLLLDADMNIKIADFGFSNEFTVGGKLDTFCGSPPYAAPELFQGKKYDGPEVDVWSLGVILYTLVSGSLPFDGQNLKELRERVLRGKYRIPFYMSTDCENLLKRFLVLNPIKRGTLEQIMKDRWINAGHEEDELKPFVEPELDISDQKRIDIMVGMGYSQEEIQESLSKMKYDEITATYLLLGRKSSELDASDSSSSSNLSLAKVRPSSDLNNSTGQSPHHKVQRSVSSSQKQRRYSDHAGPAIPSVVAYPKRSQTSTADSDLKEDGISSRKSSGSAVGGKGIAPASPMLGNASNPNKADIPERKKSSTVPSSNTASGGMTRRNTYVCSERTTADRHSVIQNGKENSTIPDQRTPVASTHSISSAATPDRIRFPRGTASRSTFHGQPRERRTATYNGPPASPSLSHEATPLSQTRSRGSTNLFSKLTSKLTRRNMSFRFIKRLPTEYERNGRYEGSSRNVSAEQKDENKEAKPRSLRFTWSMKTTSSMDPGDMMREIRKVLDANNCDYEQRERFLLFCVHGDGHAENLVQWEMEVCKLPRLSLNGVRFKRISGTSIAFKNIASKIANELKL
MAP2K3 (human), sequence (P46734 whole entry, looked up): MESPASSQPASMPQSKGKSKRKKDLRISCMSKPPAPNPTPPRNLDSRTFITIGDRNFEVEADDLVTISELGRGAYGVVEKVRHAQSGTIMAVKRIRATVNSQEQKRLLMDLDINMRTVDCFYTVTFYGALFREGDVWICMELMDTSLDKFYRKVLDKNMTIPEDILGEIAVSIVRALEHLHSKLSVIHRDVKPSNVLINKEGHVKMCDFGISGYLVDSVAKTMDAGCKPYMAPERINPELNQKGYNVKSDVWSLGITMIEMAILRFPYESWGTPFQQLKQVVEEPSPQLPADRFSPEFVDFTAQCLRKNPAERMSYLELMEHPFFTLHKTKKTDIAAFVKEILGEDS
BRSK2 (human), sequence (Q8IWQ3 whole entry, looked up): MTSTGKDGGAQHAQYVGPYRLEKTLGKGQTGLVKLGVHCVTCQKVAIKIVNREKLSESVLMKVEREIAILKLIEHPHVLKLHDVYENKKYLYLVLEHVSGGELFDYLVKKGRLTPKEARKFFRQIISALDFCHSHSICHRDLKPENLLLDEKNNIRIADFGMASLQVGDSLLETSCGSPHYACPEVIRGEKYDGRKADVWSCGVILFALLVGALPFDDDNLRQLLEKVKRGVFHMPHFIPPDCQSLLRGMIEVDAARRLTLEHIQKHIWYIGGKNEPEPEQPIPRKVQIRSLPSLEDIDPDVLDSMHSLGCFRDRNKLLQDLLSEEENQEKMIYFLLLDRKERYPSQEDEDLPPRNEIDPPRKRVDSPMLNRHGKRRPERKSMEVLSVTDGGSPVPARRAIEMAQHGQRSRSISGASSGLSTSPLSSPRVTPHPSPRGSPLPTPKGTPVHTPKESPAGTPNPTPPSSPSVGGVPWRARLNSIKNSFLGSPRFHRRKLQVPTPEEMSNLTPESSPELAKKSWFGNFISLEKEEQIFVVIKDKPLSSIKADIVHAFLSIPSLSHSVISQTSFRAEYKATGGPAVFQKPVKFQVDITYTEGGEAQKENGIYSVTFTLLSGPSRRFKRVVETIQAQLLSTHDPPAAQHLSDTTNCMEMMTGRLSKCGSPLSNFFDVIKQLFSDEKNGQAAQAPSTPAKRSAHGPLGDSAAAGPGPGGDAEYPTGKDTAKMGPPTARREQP
CaMK1 (human), sequence (Q14012 whole entry, looked up): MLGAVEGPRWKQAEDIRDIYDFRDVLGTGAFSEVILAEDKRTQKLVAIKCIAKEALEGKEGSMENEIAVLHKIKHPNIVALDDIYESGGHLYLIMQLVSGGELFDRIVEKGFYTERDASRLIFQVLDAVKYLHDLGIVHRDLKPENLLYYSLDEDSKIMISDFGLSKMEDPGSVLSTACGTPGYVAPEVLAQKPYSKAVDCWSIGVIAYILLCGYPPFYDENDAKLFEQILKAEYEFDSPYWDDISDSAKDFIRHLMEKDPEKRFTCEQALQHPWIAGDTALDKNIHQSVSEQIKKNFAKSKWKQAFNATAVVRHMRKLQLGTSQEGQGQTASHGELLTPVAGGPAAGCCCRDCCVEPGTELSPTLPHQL
ACVR1 (human), sequence (Q04771 whole entry, looked up): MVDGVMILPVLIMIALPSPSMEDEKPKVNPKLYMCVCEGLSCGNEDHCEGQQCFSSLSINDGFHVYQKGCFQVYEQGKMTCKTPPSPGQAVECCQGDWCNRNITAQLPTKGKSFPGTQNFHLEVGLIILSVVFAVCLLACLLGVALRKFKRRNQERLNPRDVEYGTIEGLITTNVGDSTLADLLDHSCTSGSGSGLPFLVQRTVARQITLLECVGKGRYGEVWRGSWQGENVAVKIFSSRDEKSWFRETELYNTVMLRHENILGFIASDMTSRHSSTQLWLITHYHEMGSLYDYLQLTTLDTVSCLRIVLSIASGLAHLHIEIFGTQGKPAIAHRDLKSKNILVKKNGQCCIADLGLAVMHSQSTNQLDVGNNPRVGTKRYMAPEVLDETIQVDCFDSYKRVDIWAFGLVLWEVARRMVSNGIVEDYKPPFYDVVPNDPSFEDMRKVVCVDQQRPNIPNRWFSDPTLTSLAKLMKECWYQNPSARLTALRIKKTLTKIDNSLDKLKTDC
IRAK1 (human), sequence (P51617 whole entry, looked up): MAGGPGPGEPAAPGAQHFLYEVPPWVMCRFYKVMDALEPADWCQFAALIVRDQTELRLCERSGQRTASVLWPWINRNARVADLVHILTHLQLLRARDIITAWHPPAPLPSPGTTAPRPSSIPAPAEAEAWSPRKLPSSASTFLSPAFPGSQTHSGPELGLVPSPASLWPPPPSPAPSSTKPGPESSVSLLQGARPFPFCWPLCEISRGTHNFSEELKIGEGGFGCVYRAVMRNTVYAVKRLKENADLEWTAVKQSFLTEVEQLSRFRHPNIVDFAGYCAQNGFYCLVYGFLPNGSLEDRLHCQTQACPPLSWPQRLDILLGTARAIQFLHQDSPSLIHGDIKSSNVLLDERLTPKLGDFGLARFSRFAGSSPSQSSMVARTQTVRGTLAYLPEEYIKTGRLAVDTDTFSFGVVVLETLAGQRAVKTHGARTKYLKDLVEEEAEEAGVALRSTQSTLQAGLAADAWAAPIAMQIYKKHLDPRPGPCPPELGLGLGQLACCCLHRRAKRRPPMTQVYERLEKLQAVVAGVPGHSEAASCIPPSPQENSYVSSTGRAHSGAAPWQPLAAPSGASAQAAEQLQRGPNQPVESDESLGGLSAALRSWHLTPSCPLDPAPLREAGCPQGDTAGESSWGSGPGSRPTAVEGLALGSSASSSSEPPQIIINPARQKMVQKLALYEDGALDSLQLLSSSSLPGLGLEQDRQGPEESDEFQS

SMILES: COCCNCCCn1c(C(=O)CF)c(-c2ccc(C)cc2)c2c(N)ncnc21
- kinase still bound, per cent of control (CaMK1 (human)): 100%
- kinase still bound, per cent of control (NEK5 (human)): 100%
- kinase still bound, per cent of control (ROCK2 (human)): 94%
- kinase still bound, per cent of control (MST1R (human)): 100%
- kinase still bound, per cent of control (TIE1 (human)): 100%
- kinase still bound, per cent of control (SLK (human)): 100%
- kinase still bound, per cent of control [1]: 100%
- kinase still bound, per cent of control (MAP2K3 (human)): 97%
- kinase still bound, per cent of control (PRKAA1 (human)): 100%
- kinase still bound, per cent of control (PIK3CG (human)): 100%
- kinase still bound, per cent of control (MLTK (human)): 100%
- kinase still bound, per cent of control (ACVR1 (human)): 100%
- kinase still bound, per cent of control (FER (human)): 84%
- kinase still bound, per cent of control (MAPK1 (human)): 100%
- kinase still bound, per cent of control [2]: 100%
- kinase still bound, per cent of control (CAMK4 (human)): 100%
- kinase still bound, per cent of control (STK16 (human)): 100%
- kinase still bound, per cent of control [3]: 91%
- kinase still bound, per cent of control (MAP4K2 (human)): 94%
- kinase still bound, per cent of control (EPHB4 (human)): 89%
- kinase still bound, per cent of control (DYRK2 (human)): 89%
- kinase still bound, per cent of control (STK38L (human)): 92%
- kinase still bound, per cent of control (ERBB4 (human)): 100%
- kinase still bound, per cent of control (EIF2AK1 (human)): 100%
- kinase still bound, per cent of control [4]: 94%
- kinase still bound, per cent of control (CDKL3 (human)): 88%
- kinase still bound, per cent of control (PIK3C2B (human)): 100%
- kinase still bound, per cent of control [5]: 100%
- kinase still bound, per cent of control (TXK (human)): 100%
- kinase still bound, per cent of control (CDK17 (human)): 100%
- kinase still bound, per cent of control (STK17B (human)): 96%
- kinase still bound, per cent of control (MARK3 (human)): 100%
- kinase still bound, per cent of control (CDK4 CCND1 (human)): 98%
- kinase still bound, per cent of control (NLK (human)): 96%
- kinase still bound, per cent of control [6]: 100%
- kinase still bound, per cent of control [7]: 84%
- kinase still bound, per cent of control (IRAK1 (human)): 93%
- kinase still bound, per cent of control (ERBB3 (human)): 96%
- kinase still bound, per cent of control (BRSK2 (human)): 100%
- kinase still bound, per cent of control (FGFR3 (human)): 92%
- kinase still bound, per cent of control (TEC (human)): 100%
- kinase still bound, per cent of control (MAK (human)): 95%
- kinase still bound, per cent of control (RPS6KA3 KD1 (human)): 97%
